According to patent publication EP1905824A1, “A […] AND A METHOD FOR CELL […]” (Olympus Corporation, priority 2005, dated 2006):

How the values were obtained:
Assay type in all cases: cell-based, human
[1] = tested on: cell line in which only the pd2EGFP-1 vector having no ERE was stably introduced (pdE2-GFP-4); assay: Estrogen signal response assessment (GFP expression), control cell line without ERE; settings: E2 10 nM, two days; regardless of E2-treated/untreated
[2] = tested on: ERE-GFP-E10 cell line; assay: MTT assay for living cell counts after addition of E2; settings: E2 0 to 300 pM; four days; absorbance at 560 nm
[3] = tested on: ERE-GFP-E10 cell line; assay: Estrogen signal response assessment (GFP expression, fluorescence microscope / flow cytometer); settings: E2 10 nM, two days; compared with E2-untreated (low GFP expression level)
[4] = tested on: MCF7 cell lines (clones) in which the ERE-GFP reporter gene having a sable GFP as the reporter was stably introduced; assay: GFP protein induction with/without estrogen (E2), stable-GFP reporter clones; settings: E2 10 nM, two days
[5] = tested on: ERE-GFP-E10 cell line; assay: GFP expressing cell counting after addition of E2
[6] = tested on: breast cancer tissue-derived adipose stromal cell and ERE-GFP-E10 cell; assay: Co-culture of breast cancer tissue-derived adipose stromal cell and ERE-GFP-E10, detection of estrogen signal; design: dose or concentration left out as unconfirmed; settings: testosterone, four days co-culture; compared with no addition of androgen; three breast cancer cases
[7] = E2 3 pM or 1 nM, Day 1 to Day 4, regardless of the amount of E2 added

Structure (SMILES) | GFP expression [1] | living cell count [2] | GFP expression level when E2-treated [3] | GFP expression positive cell rate (%) E2-added group ([4]; clone #16, E2-free group 85) | GFP expression positive cell rate (%) E2-added group ([4]; clone #19, E2-free group 32) | GFP expression positive cell rate (%) E2-added group ([4]; clone #21, E2-free group 5) | GFP expression positive cell rate (%) E2-added group ([4]; clone #28, E2-free group 37) | GFP expression positive cell rate (%) E2-added group ([4]; clone #29, E2-free group 77) | GFP expression positive cell rate (%) E2-added group ([4]; clone #37, E2-free group 83) | E2 concentration at which GFP expression induction was maximized ([5]; E2 0, 1, 3, 10, 30, 100, 300 pM, four days) | day from which GFP expression was observed after the addition of E2 [5, 7] | day on which GFP expression positive cell count was maximized [5, 7] | minimal effective concentration ([5]; Homo sapiens, 96 h, E2 0, 1, 3, 10, 30, 100, 300 pM, four days, read-out: E2 concentration at which a significant level of GFP expression induction was detected) | GFP positive cell rate in the ERE-GFP-E10 cell [6]
C[C@]12CC[C@@H]3c4ccc(O)cc4CC[C@H]3[C@@H]1CC[C@@H]2O [E2, 17 β estradiol] | no GFP expression | increased dependently on the added E2 concentration | GFP well induced, having a high expression level | 88% | 73% | 8% | 41% | 83% | 84% | 30 pM | 1 days | 2 days | 3e-06 µM | 
C[C@]12CC[C@H]3[C@@H](CCC4=CC(=O)CC[C@@]43C)[C@@H]1CC[C@@H]2O [testosterone] |  |  |  |  |  |  |  |  |  |  |  |  |  | significantly increased
